Assay results as given in patent US7968606B2 (Takasago International Corporation, priority 2004, dated 2011).

System: Japanese women
Experiment: Contingent negative variation (CNV) amplitude measurement, method of Torii
Assay type: in vivo, human
Details: used in perfume compositions in an amount of less than 0.5% by weight, preferably 0.01% to 0.4% by weight
Text: (CNV) according to the method of Torii [Proceedings of the 19th Japanese Symposium on Taste and Smell, 65 (1985)], which is also described in detail in U.S. Pat. No. 6,268,333.
The contingent negative variations are small variations in cerebral potential related to psychological processes, such as attention, waiting, anticipation etc. as well as being related to changes in the state of consciousness.
According to this method, a luminous signal is emitted approximately 2 seconds after the audible signal, and the subject must switch off the luminous signal by pressing on the button as soon as the luminous signal is recognised.
When carrying out these experiments, a sample to be tested (perfume composition) or a reference sample (with no smell) is placed around 10 centimeters from the nose of the subject taking part in these experiments in such a way as to ensure that the compound is recognised at all times via the said subject's respiration. […]
The contingent negative variations measured during an early period of time going from 400 msec to 1000 msec after the audible signal and the amplitude of these variations is expressed with respect to a reference sample to which a value of 100% is given. […]
The amplitude of the contingent negative variations was determined for each woman taking part in the test during the early period going from 400 msec to 1000 msec after the audible signal.

## COc1cc(OC)cc(OC)c1 [1,3,5-trimethoxybenzene]
  sedative effect by measurement of contingent negative variations: sedative effect
